From patent US7220725B2, “Pharmaceutical composition comprising an analgesic peptide and method for treating pain” (S.I.S. Shulov Institute for Science Ltd., priority 2000, dated 2007)
Square brackets hold non-standard residues; d marks the D form. * marks the point of attachment. pGlu = O=C1CC[C@@H](C(=O)O)N1; Octanoyl = CCCCCCCC(=O)*

Tested on: HCl induced pain
Experiment: Analgesic assay: licks after subcutaneous HCl injection following topical ointment
Format: in vivo, hamsters
Method: In each test, a few tens of hamsters of similar weight and age were used. The hamsters were divided into groups according to the number of samples to be tested. Ointment (50% Lanolin and 50% Vaseline) containing the tested substance was applied to the animal's fur on the back region. The fur was not removed so as to ensure that no damage to the skin occurred. A control group of hamsters was treated with ointment without the fraction of the invention. Hamsters were treated by topical application for 6, 14, 21 or 28 consecutive days. The test for analgesity was conducted following the last application of the ointment. In an alternate protocol, analgesity was tested following a single application of the ointment.
Subsequently to application of the ointment, the hamsters “clean” themselves by dispersing the ointment all over their body with their tongue and legs. Thus, some of the ointment is introduced into the oral cavity and possibly also into the intestine of the hamsters.
In a typical test, a constant amount of ointment with or without an analgesic substance is applied to each animal for a predetermined period of one or more days. Following this period, pain is induced by a subcutaneous injection of 0.5 ml of 1N HCl/0.1 kg body weight in the femur region. The hamsters respond to the HCl injection by touching the area of injection with the tongue, this being called a “lick”. 20 minutes after injection the hamster is observed for 60 min and the number of “licks” are counted. The number of “licks” serves as a quantitative indication of the HCl induced pain.
The analgesic effect is determined by comparing the mean number of “licks” in control animals to the number in treated animals. The significance of the difference was determined using t-test statistics.
0.6 mg of pENW, pENWK-C8 or pENWGAT (a dimer of pENW) were dissolved in 5 ml of DDW, mixed by an ultrasonic mixer for 2 minutes and then dissolved in […] of ointment. The final peptide concentration was 0.002 mg/gr.
6 applications were made over a period of 4 weeks. The test for analgesity was conducted 10 days following the last application of the ointment.
Compositions at a concentration of 0.020 mg/g were prepared as in Example 1 containing the following active ingredients: pENW, pEEW, or pENTW or pENWT. 6 applications were made over a period of 5 weeks. The results are summarized below:
A composition containing pENW—C8 at a concentration of 0.002 mg/g ointment was prepared as in Example 1. A single application was made to the animals, and analgesity was assayed 11, 23 and 48 days post-application. Ointment without an active substance was applied to the control animals.

[1] = Example 1: 0.002 mg/gr in ointment, topical, 6 applications over 4 weeks, tested 10 days after last application, control 113.9
[2] = Example 2: 0.020 mg/g in ointment, topical, 6 applications over 5 weeks, control 117

Row | Substance | mean number of licks [1] | mean number of licks [2] | mean number of licks (Example 3: 0.002 mg/g ointment, single application, 11 days post application, control 106) | mean number of licks (Example 3: 0.002 mg/g ointment, single application, 23 days post application, control 106) | mean number of licks (Example 3: 0.002 mg/g ointment, single application, 48 days post application, control 106)
1 | pGLU-ASN-TRP—OH [pENW] | 59.7 | 44 | – | – | –
2 | pGLU-GLU-TRP—OH [pEEW] | – | 35 | – | – | –
3 | pGLU-ASN-TRP-LYS(octanoyl)-OH ([pGlu]NWK(Octanoyl)-OH; SMILES CCCCCCCC(=O)NCCCC[C@H](NC(=O)[C@H](Cc1c[nH]c2ccccc12)NC(=O)[C@H](CC(N)=O)NC(=O)[C@@H]1CCC(=O)N1)C(=O)O) [pENWK-C8] | 37.9 | – | – | – | –
4 | pGlu-Asn-Trp-O-octyl [pENW—C8] | – | – | 66 | 35.7 | 62.4
